Measured values published in patent US12673029B2, “Nanodelivery system based on globulin-1 S allele, preparation method therefor and use thereof” (Zhejiang Gongshang University, priority 2022, dated 2026).

Legend:
[1] = Light stability assay under UV irradiation (absorbance at 426 nm); assay type: physicochemical; conditions: 30 W UV lamp
Description: 0.93 mg of curcumin and 14.96 mg of wheat GSA protein-curcumin composite nanoparticles were accurately weighed to be separately put in petri dishes, and were irradiated at a close range with a 30 W UV lamp, sampling was performed at 0 h, 1 h, 2 h, 3 h, 4 h, 5 h, and 6 h, the samples were separately dissolved with a […], a volume was made up to a constant volume of 250 mL, 10 mL of the prepared solution was taken, and an absorbance at 426 nm was measured, wherein the absorbance was measured for three times to take an average.

[2] = tested on: Dendritic cells DC2.4; experiment: Biological activity assay in OVA-sensitized dendritic cells DC2.4 (qRT-PCR of pro-inflammatory cytokines); assay type: cell-based; conditions: DC2.4 cells sensitized with OVA, cultured 24 hours
Description: Dendritic cells DC2.4 were sensitized by treatment with ovalbumin (OVA) and cultured for 24 hours with curcumin and wheat GSA protein-curcumin composite nanoparticles as experimental groups, respectively, and relevant experiments were conducted. Total RNA was extracted from the cells, and subjected to reverse transcription according to the instructions to obtain cDNA of relevant cells, and a quantitative reverse transcription polymerase chain reaction (qRT-PCR) was carried out by using a real-time fluorescence quantitative PCR system.

[3] = tested on: wheat GSA protein (globulin-1 S allele); experiment: Fluorescence quenching determination of the binding force of wheat GSA protein to curcumin; conditions: for KSV (Stern-Volmer dynamic quenching constant): GSA 1 μM, curcumin 1-10 μM
Description: A wheat GSA protein solution and a curcumin solution were mixed in a certain ratio (1:1, 1:2, 1:5, 1:10) at different temperatures (298 K, 303 K, 310 K) for 2 hours. The final concentration of GSA was 1 μM, wherein the molecular weight of GSA was 56.16 KDa and the concentration of curcumin was 1 μM, 2 μM, 5 μM and 10 μM. The excitation spectrum was set at 280 nm, the emission spectrum was from 320 nm to 500 nm, and the recording temperature was 298 K, 303 K, and 310 K.
At an excitation wavelength of 280 nm, tryptophan and tyrosine residues will be excited. Binding of proteins and small molecules will lead to a decrease in fluorescence emission. As the concentration of curcumin increased, the fluorescence intensity decreased constantly and a slight red shift appeared.
Fluorescence quenching can be divided into dynamic quenching and static quenching. A dynamic quenching process can be distinguished by a Stern-Volmer equation: F0/F=1+KSV[Q]=1+Kqτ0[Q] (1)
wherein F0 and F are the GSA fluorescence intensity of the system in the absence and presence of curcumin, respectively; [Q] is the concentration of a quencher curcumin; and Kq is a fluorescence quenching rate constant.
Values for a static quenching mechanism, a binding constant and the number of binding sites can be obtained from a […] equation: log[(F0-F)/F]=log(Ka)+n log[Q] (2)
wherein Ka is a binding constant, [Q] is the concentration of curcumin, and n is the number of binding sites. A log-log plot of log[(F0−F)/F] versus log[Q] was made at 298 K, 303 K, and 310 K, respectively, according to the equation, as shown in FIG. 3. Ka and n at different temperatures were obtained from the intercept and slope.
To determine the action force between GSA and curcumin, the temperature-dependent thermodynamic parameters (ΔG, ΔH, and ΔS) were calculated using the following equations: -lnK==−ΔH/RT+ΔS/RΔG=ΔH−TΔS (3) • wherein R is a gas constant (8.314 J/mol*K), and T is the experimental temperature.

COc1cc(/C=C/C(=O)CC(=O)/C=C/c2ccc(O)c(OC)c2)ccc1O [curcumin, Curcumin]
absorbance at 426 nm after UV irradiation ([1]; 2 h of UV irradiation): 0.606 | absorbance at 426 nm after UV irradiation ([1]; 5 h of UV irradiation): 0.252 | absorbance at 426 nm after UV irradiation ([1]; 6 h of UV irradiation): 0.214 | decrease of absorbance after UV irradiation ([1]; 6 h of UV irradiation): 75% | alleviating effect on the allergic effect produced by OVA (pro-inflammatory cytokine mRNA such as IL-6) [2]: a certain alleviating effect | Kq (fluorescence quenching rate constant) ([3]; 298 K): 1.3981 10^13 L/mol*s | Ka value, order of magnitude ([3]; 298 K, 303 K, and 310 K, 120 min): ~10^6 | Ka (binding constant) ([3]; 298 K, 120 min): 8.5822 10^6 L/mol | KSV (Stern-Volmer dynamic quenching constant) ([3]; 298 K): 1.3981 10^5 L/mol | Kq (fluorescence quenching rate constant) ([3]; 303 K): 2.0211 10^13 L/mol*s | Ka (binding constant) ([3]; 303 K, 120 min): 15.7797 10^6 L/mol | KSV (Stern-Volmer dynamic quenching constant) ([3]; 303 K): 2.0211 10^5 L/mol | Kq (fluorescence quenching rate constant) ([3]; 310 K): 3.0636 10^13 L/mol*s | Ka (binding constant) ([3]; 310 K, 120 min): 16.9238 10^6 L/mol | KSV (Stern-Volmer dynamic quenching constant) ([3]; 310 K): 3.0636 10^5 L/mol
